Converted amounts (≈) assume the structure as drawn.
How the values were obtained:
Type in all cases: functional
Escherichia coli = assay: Antibacterial activity against Escherichia coli at 37 degC measured after 24 hrs by agar disc diffusion method
Bacillus subtilis [1] = assay: Antibacterial activity against Bacillus subtilis at 37 degC measured after 24 hrs by agar disc diffusion method
Pseudomonas aeruginosa [2] = assay: Antibacterial activity against Pseudomonas aeruginosa at 37 degC measured after 24 hrs by agar disc diffusion method
Staphylococcus aureus = assay: Antibacterial activity against Staphylococcus aureus at 37 degC measured after 24 hrs by agar disc diffusion method
A498 = assay: Growth inhibition of human A498 cells at 10^-5 M incubated for 48 hrs by sulforhodamine B assay relative to control; conditions: A498, 48 h, read-out: GI
LOX IMVI = assay: Growth inhibition of human LOXIMVI cells at 10^-5 M incubated for 48 hrs by sulforhodamine B assay relative to control; conditions: read-out: GI
UO-31 = assay: Growth inhibition of human UO31 cells at 10^-5 M incubated for 48 hrs by sulforhodamine B assay relative to control; conditions: UO-31, 48 h, read-out: GI
SF-539 = assay: Growth inhibition of human SF539 cells at 10^-5 M incubated for 48 hrs by sulforhodamine B assay relative to control; conditions: SF-539, 48 h, read-out: GI
RPMI-8226 = assay: Growth inhibition of human RPMI8226 cells at 10^-5 M incubated for 48 hrs by sulforhodamine B assay relative to control; conditions: RPMI-8226, 48 h, read-out: GI
MDA-MB-468 = assay: Growth inhibition of human MDA-MB-468 cells at 10^-5 M incubated for 48 hrs by sulforhodamine B assay relative to control; conditions: MDA-MB-468, 48 h, read-out: GI
MOLT-4 = assay: Growth inhibition of human MOLT4 cells at 10^-5 M incubated for 48 hrs by sulforhodamine B assay relative to control; conditions: MOLT-4, 48 h, read-out: GI
HOP-62 = assay: Growth inhibition of human HOP62 cells at 10^-5 M incubated for 48 hrs by sulforhodamine B assay relative to control; conditions: HOP-62, 48 h, read-out: GI
SK-MEL-5 = assay: Growth inhibition of human SK-MEL-5 cells at 10^-5 M incubated for 48 hrs by sulforhodamine B assay relative to control; conditions: SK-MEL-5, 48 h, read-out: GI
T47D = assay: Growth inhibition of human T47D cells at 10^-5 M incubated for 48 hrs by sulforhodamine B assay relative to control; conditions: read-out: GI
K562 = assay: Growth inhibition of human K562 cells at 10^-5 M incubated for 48 hrs by sulforhodamine B assay relative to control; conditions: K562, 48 h, read-out: GI
IGROV-1 = assay: Growth inhibition of human IGROV1 cells at 10^-5 M incubated for 48 hrs by sulforhodamine B assay relative to control; conditions: IGROV-1, 48 h, read-out: GI
SNB-75 = assay: Growth inhibition of human SNB75 cells at 10^-5 M incubated for 48 hrs by sulforhodamine B assay relative to control; conditions: SNB-75, 48 h, read-out: GI
PC-3 = assay: Growth inhibition of human PC3 cells at 10^-5 M incubated for 48 hrs by sulforhodamine B assay relative to control; conditions: PC-3, 48 h, read-out: GI
HL-60(TB) = assay: Growth inhibition of human HL-60(TB) cells at 10^-5 M incubated for 48 hrs by sulforhodamine B assay relative to control; conditions: HL-60, 48 h, read-out: GI
MCF7 = assay: Growth inhibition of human MCF7 cells at 10^-5 M incubated for 48 hrs by sulforhodamine B assay relative to control; conditions: MCF7, 48 h, read-out: GI
MDA-MB-231 = assay: Growth inhibition of human MDA-MB-231 cells at 10^-5 M incubated for 48 hrs by sulforhodamine B assay relative to control; conditions: MDA-MB-231, 48 h, read-out: GI
HOP-92 = assay: Growth inhibition of human HOP92 cells at 10^-5 M incubated for 48 hrs by sulforhodamine B assay relative to control; conditions: HOP-92, 48 h, read-out: GI
NCI-H226 = assay: Growth inhibition of human NCI-H226 cells at 10^-5 M incubated for 48 hrs by sulforhodamine B assay relative to control; conditions: NCI-H226, 48 h, read-out: GI
CCRF-CEM = assay: Growth inhibition of human CCRF-CEM cells at 10^-5 M incubated for 48 hrs by sulforhodamine B assay relative to control; conditions: read-out: GI
SK-OV-3 = assay: Growth inhibition of human SKOV3 cells at 10^-5 M incubated for 48 hrs by sulforhodamine B assay relative to control; conditions: SK-OV-3, 48 h, read-out: GI
Pseudomonas aeruginosa [3] = assay: Antibacterial activity against Pseudomonas aeruginosa at 37 degC measured after 24 hrs by CLSI M7-A4 protocol based method
Bacillus subtilis [4] = assay: Antibacterial activity against Bacillus subtilis at 37 degC measured after 24 hrs by CLSI M7-A4 protocol based method

Compound	diameter of the inhibition zone (DIZ) (Escherichia coli) [mm]	diameter of the inhibition zone (DIZ) (Bacillus subtilis [1]) [mm]	diameter of the inhibition zone (DIZ) (Pseudomonas aeruginosa [2]) [mm]	diameter of the inhibition zone (DIZ) (Staphylococcus aureus) [mm]	inhibition of growth at 10 µM (LOX IMVI) [%]	inhibition of growth at 10 µM (UO-31) [%]	inhibition of growth at 10 µM (MOLT-4) [%]	inhibition of growth at 10 µM (HOP-62) [%]	inhibition of growth at 10 µM (T47D) [%]	inhibition of growth at 10 µM (PC-3) [%]	inhibition of growth at 10 µM (HOP-92) [%]	MIC (Pseudomonas aeruginosa [3]) [µg/mL]	MIC (Bacillus subtilis [4]) [µg/mL]	further results
O=C(CN1CCN(c2cc3c(cc2F)c(=O)c(C(=O)O)cn3C2CC2)CC1)N/N=C/c1ccccc1Cl	19	22	22	20										
NNC(=O)CN1CCN(c2cc3c(cc2F)c(=O)c(C(=O)O)cn3C2CC2)CC1	28	33	30	28	< 20	< 20	< 20	< 20	< 20	< 20	< 20			inhibition of growth at 10 µM (A498): < 20%; inhibition of growth at 10 µM (SF-539): < 20%; inhibition of growth at 10 µM (RPMI-8226): < 20%; inhibition of growth at 10 µM (MDA-MB-468): < 20%; inhibition of growth at 10 µM (SK-MEL-5): < 20%; inhibition of growth at 10 µM (K562): < 20%; inhibition of growth at 10 µM (IGROV-1): < 20%; inhibition of growth at 10 µM (SNB-75): < 20%; inhibition of growth at 10 µM (HL-60(TB)): 20.5%; inhibition of growth at 10 µM (MCF7): < 20%; inhibition of growth at 10 µM (MDA-MB-231): < 20%; inhibition of growth at 10 µM (NCI-H226): < 20%; inhibition of growth at 10 µM (CCRF-CEM): < 20%
O=C(CSc1nnc(CN2CCN(c3cc4c(cc3F)c(=O)c(C(=O)O)cn4C3CC3)CC2)o1)c1ccc(Cl)cc1					< 20	< 20	< 20	23.5	23	< 20	27.2			inhibition of growth at 10 µM (SK-OV-3): 20.9%
COc1cc(/C=N/NC(=O)CN2CCN(c3cc4c(cc3F)c(=O)c(C(=O)O)cn4C3CC3)CC2)cc(OC)c1OC	20	23	23	21										
O=C(CSc1nnc(CN2CCN(c3cc4c(cc3F)c(=O)c(C(=O)O)cn4C3CC3)CC2)o1)c1ccccc1					25.3	20.3	< 20	< 20	< 20	23.9	< 20			inhibition of growth at 10 µM (SK-OV-3): < 20%
COc1ccc(/C=N/NC(=O)CN2CCN(c3cc4c(cc3F)c(=O)c(C(=O)O)cn4C3CC3)CC2)cc1	24	26	27	25	23.2	< 20	< 20	< 20	< 20	< 20	< 20			inhibition of growth at 10 µM (A498): < 20%; inhibition of growth at 10 µM (SF-539): < 20%; inhibition of growth at 10 µM (RPMI-8226): < 20%; inhibition of growth at 10 µM (MDA-MB-468): < 20%; inhibition of growth at 10 µM (SK-MEL-5): < 20%; inhibition of growth at 10 µM (K562): < 20%; inhibition of growth at 10 µM (IGROV-1): < 20%; inhibition of growth at 10 µM (SNB-75): < 20%; inhibition of growth at 10 µM (HL-60(TB)): < 20%; inhibition of growth at 10 µM (MCF7): < 20%; inhibition of growth at 10 µM (MDA-MB-231): < 20%; inhibition of growth at 10 µM (NCI-H226): < 20%; inhibition of growth at 10 µM (CCRF-CEM): < 20%
O=C(CN1CCN(c2cc3c(cc2F)c(=O)c(C(=O)O)cn3C2CC2)CC1)N/N=C/c1cccs1	24	28	26	23	27.7	< 20	< 20	< 20	< 20	< 20	< 20	72 (≈ 145 µM)	82 (≈ 165 µM)	inhibition of growth at 10 µM (A498): 23.1%; inhibition of growth at 10 µM (SF-539): < 20%; inhibition of growth at 10 µM (RPMI-8226): < 20%; inhibition of growth at 10 µM (MDA-MB-468): < 20%; inhibition of growth at 10 µM (SK-MEL-5): < 20%; inhibition of growth at 10 µM (K562): < 20%; inhibition of growth at 10 µM (IGROV-1): < 20%; inhibition of growth at 10 µM (SNB-75): < 20%; inhibition of growth at 10 µM (HL-60(TB)): < 20%; inhibition of growth at 10 µM (MCF7): < 20%; inhibition of growth at 10 µM (MDA-MB-231): < 20%; inhibition of growth at 10 µM (NCI-H226): < 20%; inhibition of growth at 10 µM (CCRF-CEM): < 20%
O=C(CN1CCN(c2cc3c(cc2F)c(=O)c(C(=O)O)cn3C2CC2)CC1)N/N=C/c1ccncc1	28	35	30	30								44 (≈ 89.3 µM)	62 (≈ 126 µM)	
COc1cc(/C=N/NC(=O)CN2CCN(c3cc4c(cc3F)c(=O)c(C(=O)O)cn4C3CC3)CC2)ccc1O	18	20	18	16										
O=C(CN1CCN(c2cc3c(cc2F)c(=O)c(C(=O)O)cn3C2CC2)CC1)N/N=C/c1ccc(Cl)cc1	28	30	30	28	< 20	< 20	< 20	< 20	< 20	< 20	< 20	60 (≈ 114 µM)	62 (≈ 118 µM)	inhibition of growth at 10 µM (A498): 26.7%; inhibition of growth at 10 µM (SF-539): < 20%; inhibition of growth at 10 µM (RPMI-8226): < 20%; inhibition of growth at 10 µM (MDA-MB-468): < 20%; inhibition of growth at 10 µM (SK-MEL-5): < 20%; inhibition of growth at 10 µM (K562): < 20%; inhibition of growth at 10 µM (IGROV-1): < 20%; inhibition of growth at 10 µM (SNB-75): < 20%; inhibition of growth at 10 µM (HL-60(TB)): < 20%; inhibition of growth at 10 µM (MCF7): < 20%; inhibition of growth at 10 µM (MDA-MB-231): < 20%; inhibition of growth at 10 µM (NCI-H226): < 20%; inhibition of growth at 10 µM (CCRF-CEM): < 20%
O=C(CN1CCN(c2cc3c(cc2F)c(=O)c(C(=O)O)cn3C2CC2)CC1)N/N=C/c1ccco1	28	31	30	26								66 (≈ 137 µM)	70 (≈ 145 µM)	
O=C(O)c1cn(C2CC2)c2cc(N3CCNCC3)c(F)cc2c1=O [CIPROFLOXACIN]	33	38	36	31										
O=C(CN1CCN(c2cc3c(cc2F)c(=O)c(C(=O)O)cn3C2CC2)CC1)N/N=C/c1cccnc1	29	32	31	30								58 (≈ 118 µM)	60 (≈ 122 µM)	
O=C(CN1CCN(c2cc3c(cc2F)c(=O)c(C(=O)O)cn3C2CC2)CC1)N/N=C/c1ccc(F)cc1	17	19	19	18										
O=C(CN1CCN(c2cc3c(cc2F)c(=O)c(C(=O)O)cn3C2CC2)CC1)N/N=C/c1ccccc1F	26	29	29	26										
